Results: a melting point compilation (Tetko et al.; mined from patent text by program, amines drawn as free bases though some values may be those of a salt)

Row | melting point | Compound
1 | 122 °C | CN(C(=O)C(F)(F)F)c1cnn(-c2cccc(C(F)(F)F)c2)c(=O)c1-c1cccc(C(F)(F)F)c1
2 | 161 to 162 °C | NN=C1CCCCC1n1nc(-c2c(-c3ccccc3)nn3ccccc23)ccc1=O (stereo not given)
3 | 165 to 167 °C | CCCCc1nc2cccc(C(=O)O)c2n1Cc1ccc(-c2ccccc2-c2nc(=O)o[nH]2)cc1
4 | 103 to 105 °C | O=c1oc(-c2ccccc2)cc(O)c1SCCCCc1ccccc1
5 | 56 to 60 °C | Clc1nc(-c2cccnc2)sc1NC1CC1
6 | 132 to 134 °C | CSC1=N[C@@H](c2ccccc2)[C@H](c2ccccc2)N1 (relative stereo)
7 | 192 to 193 °C | CCOC(=O)N1CCC(=C2c3ccc(Cl)cc3OCc3cc([N+](=O)[O-])cnc32)CC1
8 | 94 to 96 °C | CC(C)(C)NCCCNC(=O)Cn1cnc(-c2ccccc2)c1-c1ccccc1
9 | 60 to 61 °C | CCOC(=O)CCc1ccc(O)c(OCc2ccccc2)c1
10 | 166 to 167 °C | Nc1ccc(-c2ccnc(-c3ccc(C(F)(F)F)cc3)n2)cc1
11 | 202 to 204 °C | CC1(C)c2ccc([N+](=O)[O-])cc2[C@@H](NC(=O)NCc2ccccc2)[C@@H]1O (relative stereo)
12 | 88 to 89 °C | O=C(CCCCCc1ccc(Cl)cc1)N1CCN(c2cnccn2)CC1
13 | 216 °C | CC(C)(C)Oc1ccc(C(=O)N[C@H]2CC[C@H](CCN3CCC(c4cccc5c4CCO5)CC3)CC2)cc1
14 | 130 to 131 °C | COC(=O)C(=O)c1c(F)cc(OCCOc2ccc3ccccc3c2)cc1F
15 | 219 to 220 °C | CC(C)n1nc(-c2c(-c3ccccc3)nn3ccc(N4CCN(S(=O)(=O)c5ccccc5)CC4)cc23)ccc1=O
16 | 58 to 59 °C | CCOC(=O)C(=O)c1ccc(OCCCCCCCCCCCCOc2ccccc2)cc1
17 | 83 to 84 °C | O=C(O)Cc1cccc(OCCCCl)c1
18 | 172 to 175 °C | CCCN1C(=O)c2ccccc2C1(O)c1ccc(F)cc1 (stereo not given)
19 | 122 to 123 °C | CC(C)c1nn(-c2ccc(C(F)(F)F)cn2)cc1CCCOc1nn(C)cc1CC(=O)O
20 | 78 to 81 °C | O=C(c1cnoc1)N1CCCCC1
21 | 156 to 158 °C | C=C(C)c1cccc2c1nc(-c1c(F)cccc1F)n2Cc1c(F)cccc1F
22 | 80 to 81 °C | COc1cc(CCC=O)ccc1OCc1nc(-c2ccccc2)oc1C
23 | 106 to 108 °C | COc1ccc(Nc2ccccc2C(=O)N2CCCCC2)cc1
24 | 166 to 167 °C | O=c1c2cccc3ncc(c(=O)n1CCCCCNS(=O)(=O)C(F)(F)F)n32

Row | melting point | Compound
25 | 197 to 199 °C | COc1ccc2nc(-c3ccc(OC)c(F)c3)c(Cl)c(Br)c2c1
26 | 187 to 188 °C | [O-][N+](C1C2CC(c3ccccc32)C1Cl)=[N+]([O-])C1C2CC(c3ccccc32)C1Cl (stereo not given)
27 | 160 °C | CC(C)(C)NS(=O)(=O)c1ccccc1C(O)c1ccccc1 (stereo not given)
28 | 105 to 107 °C | COc1cc(Cc2ccc(N)c(C#N)c2)cc(OC)c1
29 | 234 to 235 °C | Cc1cccc(C(=O)NC(Nc2c(Nc3cccnc3)c(=O)c2=O)C(C)(C)Cc2ccccc2)c1 (stereo not given)
30 | 141 to 142 °C | Nc1ncnc2c(C3OC(CO)C(O)C3O)[nH]nc12 (stereo not given)
31 | 118 to 119 °C | COc1ccc(CN2C(=O)CC(C)(C)c3cc(Br)ccc32)cc1
32 | 120 to 122 °C | COc1cc(C(=O)NS(=O)(=O)Cc2ccccc2C(F)(F)F)nc(C)n1
33 | 312 °C | O=C1NC(NCC2CC2)=N/C1=C\c1c[nH]c2ncc(F)cc12
34 | 162 to 165 °C | CCOC(=O)CSc1nc(Cl)cc(NN=Cc2ccc(Cl)cc2)n1
35 | 194 to 195 °C | CS(=O)CC(=N)c1ccccc1O (stereo not given)
36 | 284 to 285 °C | COC(=O)C1=C(C)NC(C)=C(C(=O)OC)C1c1ccccc1NC(C)=O
37 | 141 to 143 °C | COC1=C(OC)C(=Nc2ccccc2)NC1=O
38 | 100 to 101 °C | CCCCCc1c(C(C)C)nc(C(C)C)c(CO)c1-c1ccc(F)cc1
39 | 203 to 205 °C | O=C1Nc2ccc(Cl)c(Cl)c2C(=O)N2CCC[C@@H]12
40 | 250 °C | O=C(O)CC(C(=O)O)c1ccn2c(=O)c(C(=O)O)ccc2c1 (stereo not given)
41 | 185 to 186 °C | Cn1ccc(=O)c(CO)c1
42 | 226 °C | Cn1cncc1C(O)(c1ccc(Cl)cc1)c1cc2nnn3c(=O)cc(-c4cccc(Cl)c4)c(c1)c23 (stereo not given)
43 | 140 to 141 °C | COc1ccc(C2CNC(=O)C2)cc1OCCN1CCN(c2ccccc2)CC1 (stereo not given)
44 | 252 to 255 °C | Cn1cc(S(C)=O)c(=O)c2sc(-c3ccccc3)cc21 (stereo not given)
45 | 229 to 230 °C | CCCCc1nc2c(N)nc3cc(-c4ccsc4)ccc3c2n1CC(C)C
46 | 156 to 158 °C | CCCCc1ccc(C(=O)NCCN(C(C)=O)[C@@H](CCC(N)=O)C(=O)O)nc1
47 | 261 to 264 °C | CC(=O)Nc1ncc(-c2ccncc2)cn1
48 | 91.5 to 92.5 °C | CCOCCS(=O)(=O)c1nc[nH]n1

Row | melting point | Compound
49 | 190 to 191 °C | CC(=O)N1c2ccc(-c3nnn[nH]3)cc2C(Nc2ccc(Cl)cc2)CC1C (stereo not given)
50 | 76 to 77.5 °C | C=CCOC(=O)N=C(OCC)N1Cc2ccccc2-c2ccccc2C1
51 | 266 to 272 °C | O=S1(=O)NC2CCCN2c2ccc(Oc3cccc(-c4nnn[nH]4)c3)cc21 (stereo not given)
52 | 137 °C | Cc1c(-c2cc(N(C)C)ncn2)ssc1=S
53 | 151 to 153 °C | CCC1(CC)COC(=O)N1c1nc(-c2ccc(C#N)cc2)c(F)s1
54 | 191 to 192 °C | O=C(CO[C@H]1CC[C@@H](CCNS(=O)(=O)c2ccc(Cl)cc2)CC1)Nc1nnn[nH]1
55 | 77 to 78 °C | CCOc1nn(-c2c(Cl)cc(C(F)(F)F)cc2Cl)c(N)c1C(=O)c1cccc(C(F)(F)F)c1
56 | 244 to 247 °C | O=c1c2scc(Br)c2ncn1O
57 | 205 °C | CS(=O)(=O)Nc1cncc(C(=NCCc2ccccc2Cl)NC#N)c1
58 | 145 to 148 °C | CCN(C)c1nc(-c2cc(OC)cc(OC)c2)nc2sc(C#N)c(C)c12
59 | 102 to 104 °C | Nc1cn(C2OC(CO)C(O)C2O)nn1 (stereo not given)
60 | 268 to 269 °C | O=C1CC2(C(=O)N1)C(=O)N1CCCc3cc(Cl)cc2c31 (stereo not given)
61 | 147 to 148 °C | CCn1ncnc1COc1nc2c(cnn2-c2ccccc2)c2ccccc12
62 | 189 to 192 °C | N#Cc1ccc(CN2CCC(N3C(=O)Nc4ccccc4C3c3ccccc3)CC2)cc1 (stereo not given)
63 | 132 °C | CC1(C)C=C(c2ccccn2)c2ccc(C#N)cc2OC1
64 | 201 °C | CC(C)(C)OC(=O)Nc1ccc(-c2ccccc2F)cc1NC(=O)CC(=O)c1ccc(C#N)s1
65 | 145 to 146 °C | Cc1ccccc1NC(=N)NC1CCCCC1
66 | 40 °C | CCN1c2ncc(CO)cc2C(=O)N(C)c2ccc(F)nc21
67 | 175 to 180 °C | Cc1cc(Cl)cc(C(=O)c2ccc(S(C)(=O)=O)cc2Cl)c1O
68 | 73 to 75 °C | CC(=O)CCCCCCCc1ccc(O)c(O)c1
69 | 34 to 35 °C | CC1(C(=O)n2ccnc2)CC1
70 | 200 to 203 °C | Nc1cc(Cl)c(Sc2cccc3cnccc23)cc1N
71 | 139 °C | Cc1ccc(C(=O)OCn2ncc(=O)[nH]c2=O)cc1
72 | 128 °C | Cc1ccc(NC(=O)Oc2ccc3c(c2)NCCC3)cc1

Row | melting point | Compound
73 | 96 to 97 °C | CCOC(=O)[C@H](CO)NC(=O)[C@H](CC(=O)OCc1ccccc1)NC(=O)OC(C)(C)C
74 | 118 to 119 °C | Cn1ncc(C=O)c1-c1cccnc1
75 | 223 to 225 °C | Cc1c(SCCN2CCOCC2)ccnc1CSc1nc2ccccc2n1CC(=O)O
76 | 199 to 204 °C | CCN1c2ncc(CCc3ccc(NS(C)(=O)=O)cc3)cc2C(=O)N(C)c2ccc(Cl)nc21
77 | 106 to 107 °C | CSC(=S)NCc1ccc([N+](=O)[O-])cc1
78 | 155 to 157 °C | Cc1ncc2c(C#N)c(-c3ccc(S(=O)(=O)N[C@@H](C)C4CC4)cn3)n(C3CCC3)c2n1
79 | 173 °C | CC(C)c1ccc(N(Cc2ccc(N(C)C)cc2)C(=O)C2CCOc3cc(O)ccc32)cc1 (stereo not given)
80 | 142 to 143 °C | CN(C)CCNC(=S)SC(C)(C)[C@H](NC(=O)c1ccc(Cl)cc1)C(=O)O
81 | 70 °C | CCOC(=O)CNc1ccc(OCc2ccccc2)cc1
82 | 70 °C | NCC(CN)(CN)CN
83 | 155 °C | O=C1CCC2=C1C(Cc1ccccc1)(Cc1ccccc1)c1ccccc12
84 | 102 to 103 °C | O=C1c2ccccc2C(=O)N1CC(=C(F)F)c1ccccc1
85 | 115 to 116 °C | Clc1cccc(-c2nc3cccc(NCc4ccccn4)c3o2)c1
86 | 98 to 100 °C | CC1CCc2nc(N)sc2C1 (stereo not given)
87 | 110 to 111 °C | CC(=O)NCC1(N2CCN(C)CC2)CCCCC1
88 | 62 to 65 °C | COC(=O)NNc1ccc(C)c2c1OC(C)C2 (stereo not given)
89 | 135 °C | Fc1ccc2c(c1)nc(CC(F)(F)F)n2C1CCNCC1
90 | 207 to 209 °C | CCCC(=O)OCCOc1ccc2oc3cc(-c4nnn[nH]4)ccc3c(=O)c2c1
91 | 133 to 134 °C | CC(C(=O)O)c1cccc2c1Oc1ccccc1CC2 (stereo not given)
92 | 131 to 135 °C | COc1ccc(-c2nc(C)c(-c3cccnc3)n2O)cc1OC
93 | 130 to 131 °C | COCCn1nc(C(N)=O)cc1CC(C)(C)C#N
94 | 139 to 141 °C | Cn1nc(-c2c(F)cccc2Cl)nc1-c1ccc(Oc2ccc(C(F)(F)F)cn2)cc1Cl
95 | 144 to 146 °C | CCn1cc(C(=O)NCc2ccc(Cl)cc2)c(=O)c2cc(CCCO)sc21
96 | 225 °C | C=C1C(=N)NC(=O)N1Cc1ccccc1

Row | Compound | melting point
97 | Clc1cc(Cl)c(C(Cl)Cl)nc1Cl | 61 to 62 °C
98 | Nc1ccc(P(=O)(O)O)cc1 | 257 to 260 °C
99 | Clc1cccc(Oc2ccc(N3CCNCC3)nc2)c1 | 70 to 73 °C
100 | COC(=O)c1ncn2c1CN(C)C(=O)c1cc(F)ccc1-2 | 195 to 196 °C
101 | NCC(O)c1cc(Cl)cc(Cl)c1 (stereo not given) | 66 °C
102 | CC1CCN(C(C#N)C2(c3ccc(Cl)c(Cl)c3)CCC2)CC1 (stereo not given) | 76 to 78 °C
103 | CCc1cc2c(s1)-n1c(C)nnc1C(N)N=C2c1ccccc1Cl (stereo not given) | 130 to 131 °C
104 | Cc1cccc2c1C(=O)N1CCC[C@H]1c1c(C(=O)OC(C)(C)C)ncn1-2 | 192 to 194 °C
105 | CN(C)Cc1ccc(Cc2cnc(N[N+](=O)[O-])[nH]c2=O)cc1 | 214 to 217 °C
